Assay results: article PMC12844998, “Bridging the Knowledge Gap in Harmaline’s Pharmacological Properties: A Focus on Thermodynamics and Kinetics” (Pharmaceutics, 2025)
≈ marks a conversion by molar mass, not a printed value. Where “and” joins values, the source holds several entries; their conditions need not be identical. Equal values may be shown once. Read-outs that look alike come from different tables or passages of the source.

Tests used:
MDCK cells = experiment: Literature permeability across MDCK cells; format: in vitro ADME; conditions: literature MDCK (ref 12) vs PP Papp
[1] = Equilibrium solubility, shake-flask method; format: physicochemical; conditions: for solubility at 24 h: Hex, organic solvent or mixture, thermodynamic from solid, value given as S2×10^5, read-out: solubility S2∙105
Protocol: The equilibrium solubility of HML was measured by the shake-flask method over a wide temperature range of 293.15–313.15 K. Briefly, glass vials containing the respective solvent were charged with an excess of the drug. The vials were shaken at a predetermined temperature for 24 h—a duration previously established as sufficient to reach equilibrium between the solid and liquid phases. Following shaking, samples were equilibrated for ~5 h to prevent supersaturation and then centrifuged (10,000 rpm, 10 min; Biofuge pico, Thermo Electron LED GmbH, Osterode am Harz, Germany) at constant temperature. Concentrations were determined spectrophotometrically at 373 nm using a Cary-50 instrument (Varian, Palo Alto, CA, USA; software version 3.00 (339)) based on calibration curves. Data are presented as the mean ± standard deviation (or standard error) of at least three independent replicates. The error bars represent the standard deviation (SD), which ranged from 2% to 4% of the mean.

[2] = Transfer thermodynamics from van't Hoff plots of distribution coefficients; format: physicochemical; conditions: 298.15 K
Text: The calculation of the thermodynamic parameters for the solubility and distribution processes was based on component concentrations expressed in terms of mole fractions. The standard calculation procedure and the respective equations are presented in the Supplementary Materials (Section S4).

[3] = Permeability in Franz diffusion cell, polydimethylsiloxane-polycarbonate membrane; format: in vitro ADME; conditions: pH 7.4, 310.15 K
Protocol: Permeability coefficients were measured in a vertical type Franz diffusion cell (PermeGear, Inc., Hellertown, PA, USA) maintained at 37 °C, with an effective diffusion area of 0.785 cm^2. The volumes of the donor (lower) and the acceptor (upper) compartments were 7 mL and 2 mL, respectively. Three artificial membranes were used in the study: Regenerated cellulose (RC): Standard Grade RC Dialysis Membrane with a molecular weight cut-off (MWCO) of 12–14 kDa and a flat width of 45 mm; PermeaPad barrier (PP): A commercially available barrier (PHABIOC, Fritz-Souchon-Str. 27, 32339 Espelkamp, Germany; www.innome.de), originally proposed by di Cagno et al.; Polydimethylsiloxane-polycarbonate membrane (PDS): A “Carbosil” membrane composed of 55% polydimethylsiloxane and 45% polycarbonate (PENTAMED, Moscow, Russia; https://medpolymer.ru/).
A solution of HML in pH 7.4 (7 mL) was placed into the donor chamber of a Franz cell. The acceptor compartment was filled with pure buffer pH 7.4 (1 mL). Over a period of 5 h, 0.5 mL samples were withdrawn from the acceptor compartment at 30 min intervals and replaced with an equal volume of fresh pH 7.4 buffer. The sample concentrations were determined by UV-Vis spectroscopy (Cary-50, Varian, Palo Alto, CA, USA; Software Version 3.00 (339)) or by HPLC (for experiments involving the polydimethylsiloxane-polycarbonate membrane). The cumulative amount of drug permeated through the membrane was plotted as a function of time. The flux was determined from the slope of the linear portion of each curve. The permeability coefficient was calculated using the following equation:(4) Papp=J/C0 where J is the flux, and C0 is the concentration of HML in the donor solution. A reverse dialysis setup was employed, where the lower chamber served as the donor compartment and was filled with the drug solution. Sink conditions were maintained in all experiments, meaning the drug concentration in the acceptor compartment never exceeded 10% of its concentration in the donor compartment at any time according the recommendations proposed in [18].
Samples from the acceptor compartment after permeation through the PDS membrane were analyzed by HPLC using a Shimadzu Prominence LC-20 AD system(Shimadzu Corporation, Kyoto, Japan) equipped with a PDA detector and a Luna® C-18 column (150 × 4.6 mm i.d., 5 μm particle size, 100 Å pore size). The column temperature was maintained at 40 °C. The mobile phase consisted of acetonitrile and water (containing 0.1% trifluoroacetic acid) in a 20:80 (v/v) ratio. An isocratic elution was performed at a flow rate of 1.0 mL·min^−1. The injection volume was 20 μL. The analytes were detected by UV at 373 nm, with a retention time of approximately 4.5 min. […]

[4] = pH 7.4, comparison with literature ref 19

For `COc1ccc2c3c([nH]c2c1)C(C)=NCC3` [HML, Harmaline], the “MDCK permeability coefficient, fold lower than PermeaPad result” value (MDCK cells) was “up to 2.3 fold”, the “solubility at pH 2.0 relative to pH 7.4 (higher)” value ([1]; 310.15 K) was 2.2 fold and the solubility at 24 h ([1]; 293.15 K) was 59.2 ± 1.3 µM (≈ 12.7 µg/mL). It also gave a solubility at 24 h ([1]; 295.15 K) of 65 ± 1.1 µM (≈ 13.9 µg/mL), a solubility at 24 h ([1]; 298.15 K) of 75.3 ± 1.2 µM (≈ 16.1 µg/mL) and a solubility at 24 h ([1]; 303.15 K) of 93.2 ± 1.7 µM (≈ 20 µg/mL). It also gave a solubility at 24 h ([1]; 308.15 K) of 113.9 ± 0.7 µM (≈ 24.4 µg/mL), a solubility at 24 h ([1]; 310.15 K) of 130 ± 3.2 µM (≈ 27.9 µg/mL) and a solubility at 24 h ([1]; 313.15 K) of 145 ± 4.1 µM (≈ 31 µg/mL). For the same compound, the “solubility at pH 7.4 relative to reserpine (more soluble)” value [1, 4] was 42 fold, the “solubility at pH 7.4 relative to vincamine (more soluble)” value [1, 4] was 44 fold and the “log partition 1-octanol / buffer pH 7.4” value (shake-flask; pH 7.4, 293.15) was 0.973 log10. For the same compound, the “log partition n-hexane / buffer pH 7.4” value (shake-flask; pH 7.4, 293.15) was −1.929 log10, the “log partition 1-octanol / buffer pH 7.4” value (shake-flask; pH 7.4, 298.15) was 1.016 log10 and the “log partition n-hexane / buffer pH 7.4” value (shake-flask; pH 7.4, 298.15) was −1.899 log10. The “log partition 1-octanol / buffer pH 7.4” value (shake-flask; pH 7.4, 303.15) was 1.066 log10, the “log partition n-hexane / buffer pH 7.4” value (shake-flask; pH 7.4, 303.15) was −1.833 log10 and the “log partition 1-octanol / buffer pH 7.4” value (shake-flask; pH 7.4, 308.15) was 1.165 log10. The “log partition n-hexane / buffer pH 7.4” value (shake-flask; pH 7.4, 308.15) was −1.765 log10, the “log partition 1-octanol / buffer pH 7.4” value (shake-flask; pH 7.4, 310.15) was 1.290 log10 and the “log partition isopropyl myristate / buffer pH 7.4” value (shake-flask; pH 7.4, 310.15) was −0.602 log10. The “log partition n-hexane / buffer pH 7.4” value (shake-flask; pH 7.4, 310.15) was −1.658 log10, the “log partition 1-octanol / buffer pH 7.4” value (shake-flask; pH 7.4, 313.15) was 1.345 log10 and the “log partition n-hexane / buffer pH 7.4” value (shake-flask; pH 7.4, 313.15) was −1.605 log10. The TΔStr0 ([2]; Hex→OctOH) was 21.4±1.9 kJꞏmol-1, the “distribution coefficient Dx (mole fraction scale)” value ([2]; Hex→OctOH) was 993.14 and the “enthalpy contribution to transfer (ΔHtr0 share)” value ([2]; Hex→OctOH) was 16.7%. The “entropy contribution to transfer (TΔStr0 share)” value ([2]; Hex→OctOH) was 83.3%, the ΔGtr0 ([2]; Hex→OctOH) was -17.1±0.3 kJꞏmol-1 and −17.1 kJꞏmol-1 and the ΔHtr0 ([2]; Hex→OctOH) was 4.3±0.3 kJꞏmol-1. For the same compound, the TΔStr0 ([2]; pH 7.4→Hex) was 23.4±1.0 kJꞏmol-1, the “enthalpy contribution to transfer (ΔHtr0 share)” value ([2]; pH 7.4→Hex) was 55.3% and the “entropy contribution to transfer (TΔStr0 share)” value ([2]; pH 7.4→Hex) was 44.7%. For the same compound, the ΔHtr0 ([2]; pH 7.4→Hex) was 28.9±0.7 kJꞏmol-1, the TΔStr0 ([2]; pH 7.4→OctOH) was 44.4±1.3 kJꞏmol-1 and the “distribution coefficient Dx (mole fraction scale)” value ([2]; pH 7.4→OctOH) was 103.10. For the same compound, the “enthalpy contribution to transfer (ΔHtr0 share)” value ([2]; pH 7.4→OctOH) was 42.6%, the “entropy contribution to transfer (TΔStr0 share)” value ([2]; pH 7.4→OctOH) was 57.4% and the ΔGtr0 ([2]; pH 7.4→OctOH) was -11.5±0.2 kJꞏmol-1 and −11.5 kJꞏmol-1. For the same compound, the ΔHtr0 ([2]; pH 7.4→OctOH) was 32.9±0.3 kJꞏmol-1, the logPapp ([3]; PDS membrane) was −6.78 and the “steady state flux J” value ([3]; PDS membrane, C0 2.62 × 10^−3 M) was 4.31 × 10^−7 µmol∙cm^−2∙s^−1. The Papp at 5 h ([3]; PDS membrane, read-out: permeability coefficient Papp) was 0.165 ×10⁻⁶ cm/s and the “permeability coefficient for PDS, fold lower than for RC” value [3] was 299 fold.
